The test system of data set [1] is healthy-donor peripheral blood mononuclear cells (PBMCs). The experiment in a line: Annexin V/PI assay in donor PBMCs. It counts as cell-based. Particulars: 48 h. The source says: Whole blood samples from healthy donors (×5) were isolated, prepared and treated following the protocol previously described. The percentage of apoptosis observed in the treatment of isolated donor PBMCs with nitrovinylethanoanthracene 20a is concentration-dependent (Figure 11A). […] For ethanoanthracene 23a, the percentage of total apoptosis observed is illustrated in Figure 11B. […] The percentage of total apoptosis observed in the treatment of isolated donor PBMCs with the anthracene–chalcone 25n (normalized against vehicle 0.5% v/v DMSO) is illustrated in Figure 11C, and the dose-response behavior was also concentration-dependent, with compound 25n moderately toxic to healthy-donor PBMCs when treated at a 5.00 µM concentration (39%).
The human peripheral blood mononuclear cells (PBMCs) were generated as follows: peripheral blood was obtained from healthy donors (n = 2) after informed consent was received. The blood was then placed into a 50-mL falcon tube and diluted with an equal volume of phosphate-buffered saline (PBS). PBMCs were isolated using density-gradient centrifugation with LymphoPrep, as described previously. The cells were resuspended in RPMI media containing 10% FBS and 1% penicillin/streptomycin (P/S). The cells were counted using a haemocytometer and seeded into 96 well plates at a density of 1 × 10^5 cells/well (200 µL), and they were incubated at 37 °C for 1 h prior to compound treatment. The Annexin V/PI assay was used as a preliminary method of assessing the selective toxicity of the above compounds when compared with a previous alamarBlue cell viability assay in CLL cell lines. The assay was carried out as described above for the Annexin V/PI assay previously described above, and it was completed in triplicate on two independent days. Approval for this study was obtained from the School of Pharmacy and Pharmaceutical Sciences Trinity College Dublin Research Ethics Committee (2020-06-01-MS).

Data set [2] in a line: HPLC stability study in phosphate buffers. The class given is physicochemical. Particulars: for remaining at 24 h, 14.6 µg/mL / half-life at 14.6 µg/mL: phosphate buffer, 37 °C; for remaining at 24 h, 14.6 µg/mL: HPLC. In outline: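 Compound stock (5 mg in 10 mL 80:20 acetonitrile–water) added to phosphate buffers at pH 4, 7.4 and 9 and held at 37 °C. Sampled over 24 h (0 min to 24 h) and analysed by C18 HPLC with UV detection at 254 nm; single experiments.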

Data set [3] has as its system HG-3 cells. The data set can be described thus: LDH cytotoxicity assay (CytoTox 96). It counts as cell-based. Particulars: HG-3, 10 µM, 24 h, lysis solution = 100%.
For another data set, the system named is PGA-1 cells. To be noted: 10 µM.
Data set [4] concerns HG-3 cells. To be noted: 10 µM.

Where two headings read alike, the source gives them in different places.

Experimental findings from paper PMC11359702, “Synthesis and Biochemical Evaluation of Ethanoanthracenes and Related Compounds: Antiproliferative and Pro-Apoptotic Effects in Chronic Lymphocytic Leukemia (CLL)” (Pharmaceuticals, 2024) are described below.

In general, fraction remaining refers to what is left of the initial amount, in per cent. Broadly, the half-life is how long it takes for the measured level to halve. Usually cell viability stands for a read-out of living cells in per cent, often relative to untreated cells. A lower cell viability goes with more harm to the cells.

As to `O=C(C=CC12c3ccccc3C(c3ccccc31)C1C(=O)NC(=O)C12)c1ccc(Br)cc1` (centres unmarked) [Compound 23a, 9-(E)-3-(4-Bromophenyl)-3-oxoprop-1-en-1-yl)-9,10-dihydro-9,10-[3,4]epipyrroloanthracene-12,14-dione], the “total apoptosis (toxicity) in healthy-donor PBMCs” value in data set [1] (5 µM) is 28%; in data set [1] (1.25–2.5 µM), 5–14%. The “recovery at 24 h” value in data set [2] (over the pH range studied (pH 4, 7.4 and 9)) is on record as under 50%. Further, the fraction remaining at 24 h, 14.6 µg/mL in data set [2] (pH 4 buffer, read-out: % remaining 24 h pH 4) amounted to 3.12%; in data set [2] (pH 7.4 buffer, read-out: % remaining 24 h pH 7.4) it was 1.38%; in data set [2] (pH 9 buffer, read-out: % remaining 24 h pH 9) it was 0.48%. The half-life at 14.6 µg/mL in data set [2] (pH 4 buffer, read-out: Half-life pH 4 (converted)) was 13.3 h; in data set [2] (pH 7.4 buffer, read-out: Half-life pH 7.4 (converted)), about 7.5 h; in data set [2] (pH 9 buffer, read-out: Half-life pH 9 (converted)) it was about 7.5 h. Also, in the data set on HG-3 cells [3], the “LDH release (cytotoxicity, % cell death)” value was 25%.

Regarding `O=C(/C=C/C12c3ccccc3C(c3ccccc31)C1C(=O)NC(=O)C12)c1ccc(Cl)cc1` (racemic) [Compound 23l, (E)-9-(3-(4-Chlorophenyl)-3-oxoprop-1-en-1-yl)-9,10-dihydro-9,10-[3,4]epipyrroloanthracene-12,14-dione], the cell viability with PGA-1 cells came out at 5%; in the data set on HG-3 cells [4] it was 0.7%.

Regarding `O=C(C=CC12c3ccccc3C(c3ccccc31)C1C(=O)N(c3ccc(Cl)cc3)C(=O)C12)c1ccccn1` (centres unmarked) [Compound 25n, (E)-13-(4-Chlorophenyl)-9-(3-oxo-3-(pyridin-2-yl)prop-1-en-1-yl)-9,10-dihydro-9,10-[3,4]epipyrroloanthracene-12,14-dione], in data set [1] (5 µM), the “total apoptosis (toxicity) in healthy-donor PBMCs” value stood at 39%. Moreover, the “LDH release (cytotoxicity, % cell death)” value in the data set on HG-3 cells [3] came to 47%.
